In ChEMBL document CHEMBL1151216, “New constituents of Artemisia monosperma” (2004):

Tests used:
[1] = tested on: Staphylococcus aureus; experiment: Antibacterial activity against multidrug-resistant Staphylococcus aureus; format: functional
[2] = tested on: Staphylococcus aureus; experiment: Antibacterial activity against methicillin-resistant Staphylococcus aureus; format: functional

Compound `C=C[C@@H](O)C#CC#C[C@H](O)CCO` has an MIC [1] greater than 128 µg/mL and an MIC [2] greater than 128 µg/mL.
`CC1=C2[C@H](O)[C@H](C(C)C)CC[C@@]2(C)[C@H](O)C[C@H]1O` (relative stereo) showed an MIC [1] greater than 128 µg/mL and an MIC [2] greater than 128 µg/mL.
